{"source": "PubChem BioAssay (NCI)", "note": "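Growth conditions: 96-well plates. Treatment: test compound, 48 hours, 5 concentrations. Analysis: linear interpolation between bracketing concentrations; unreached endpoints set to highest concentration. TGI: total growth inhibition.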"}
{"test_system": "U251 CNS", "test": "NCI tumour cell line growth inhibition, 48 h", "units": {"TGI": "µM"}}
{"smiles": "CC1=NN(c2cccc(S(=O)(=O)O)c2)C2(C1)C(Cl)C(=O)N2c1nc2ccccc2s1", "note": "(configuration not stated)", "TGI": 16.3}
{"smiles": "C/C(Cl)=N/OC(=O)Nc1ccc(F)c([N+](=O)[O-])c1", "TGI": 41.9}
{"smiles": "COC(=O)C1C2OC(C)(C)OC2CN1S(=O)(=O)c1ccc(C)cc1", "note": "(configuration not stated)", "TGI": "> 100"}
{"smiles": "COc1ccc(CNc2ccn(C3OC(CO)C(O)C3O)c(=O)n2)cc1", "note": "(configuration not stated)", "TGI": "> 100"}
{"smiles": "O=C1CSC(c2ccccc2)N1c1nc2cc3sc(N4C(=O)CSC4c4ccccc4)nc3cc2s1", "note": "(configuration not stated)", "TGI": "> 100"}
{"smiles": "C[C@]12CCC(O)CC1=CC[C@@H]1[C@@H]2CC[C@]2(C)C(O)[C@H](n3ccnc3)C[C@@H]12", "note": "(some centres not stated)", "TGI": "> 100"}
{"smiles": "O=C(CC(O)(C(F)(F)F)C(F)(F)F)C(c1ccccc1)C(O)(C(F)(F)F)C(F)(F)F", "note": "(configuration not stated)", "TGI": "> 100"}
{"smiles": "CCOC(=O)/C(C#N)=C/Nc1c(C)n(C)n(-c2ccccc2)c1=O", "TGI": "> 100"}
{"test_system": "UACC-62 melanoma", "test": "NCI tumour cell line growth inhibition, 48 h", "units": {"TGI": "µM"}}
{"smiles": "COc1cc(C(=O)NNC(=O)c2cc(Br)ccc2NC(=O)c2cccs2)cc(OC)c1OC", "TGI": 34.1}
{"smiles": "C[N+]12CCCCC1C(COc1cccc3cccnc13)CCC2", "note": "(configuration not stated)", "TGI": "> 100"}
{"smiles": "Cc1ccc(S(=O)(=O)NC(=O)NCc2ccc(S(N)(=O)=O)cc2)cc1", "TGI": "> 100"}
{"smiles": "NC(=O)NC1NC(=O)NC1=O", "note": "(configuration not stated)", "TGI": "> 100"}
{"smiles": "CCN(CCCl)c1cc(CN(C)C)cc(NC(=O)c2ccc(C(=O)Nc3cc(CN(C)C)cc(N(CC)CCCl)c3)cc2)c1", "TGI": 0.273}
{"smiles": "C=CCN1C(=O)/C(=C/c2ccc(Cl)cc2)N=C1SC/C=C/C", "TGI": "> 100"}
{"smiles": "CC12Nc3c(Cl)cc(Cl)cc3N1C(=O)c1ccccc12", "note": "(configuration not stated)", "TGI": "> 100"}
{"smiles": "Nc1cc(Cl)cc2cc(Cl)cnc12", "TGI": "> 100"}
{"smiles": "O=C(/C=C/c1cccc([N+](=O)[O-])c1)N1CCN(CCOC(c2ccccc2)c2ccccc2)CC1", "TGI": "> 100"}
{"smiles": "CC(=O)OCC1OC(NC(=S)Nn2c(=O)[nH]c3ccccc3c2=O)C(OC(C)=O)C(OC(C)=O)C1OC(C)=O", "note": "(configuration not stated)", "TGI": "> 100"}
{"smiles": "Cc1ccc2c(c1)C(=O)C1(C2)Cc2c(C)cccc2C1=O", "note": "(configuration not stated)", "TGI": "> 100"}
{"smiles": "CC1=NN(c2cccc(S(=O)(=O)O)c2)C2(C1)C(Cl)C(=O)N2c1nc2ccccc2s1", "note": "(configuration not stated)", "TGI": 19.1}
{"smiles": "C/C(Cl)=N/OC(=O)Nc1ccc(F)c([N+](=O)[O-])c1", "TGI": "> 63.2"}
{"smiles": "COC(=O)C1C2OC(C)(C)OC2CN1S(=O)(=O)c1ccc(C)cc1", "note": "(configuration not stated)", "TGI": "> 100"}
{"smiles": "COc1ccc(CNc2ccn(C3OC(CO)C(O)C3O)c(=O)n2)cc1", "note": "(configuration not stated)", "TGI": "> 100"}
{"smiles": "O=C1CSC(c2ccccc2)N1c1nc2cc3sc(N4C(=O)CSC4c4ccccc4)nc3cc2s1", "note": "(configuration not stated)", "TGI": "> 100"}
{"smiles": "C[C@]12CCC(O)CC1=CC[C@@H]1[C@@H]2CC[C@]2(C)C(O)[C@H](n3ccnc3)C[C@@H]12", "note": "(some centres not stated)", "TGI": "> 100"}
{"smiles": "O=C(CC(O)(C(F)(F)F)C(F)(F)F)C(c1ccccc1)C(O)(C(F)(F)F)C(F)(F)F", "note": "(configuration not stated)", "TGI": "> 100"}
{"smiles": "CCOC(=O)/C(C#N)=C/Nc1c(C)n(C)n(-c2ccccc2)c1=O", "TGI": "> 100"}
{"test_system": "UO-31 renal", "test": "NCI tumour cell line growth inhibition, 48 h", "units": {"TGI": "µM"}}
{"smiles": "COc1cc(C(=O)NNC(=O)c2cc(Br)ccc2NC(=O)c2cccs2)cc(OC)c1OC", "TGI": 50.2}
{"smiles": "C[N+]12CCCCC1C(COc1cccc3cccnc13)CCC2", "note": "(configuration not stated)", "TGI": "> 100"}
{"smiles": "Cc1ccc(S(=O)(=O)NC(=O)NCc2ccc(S(N)(=O)=O)cc2)cc1", "TGI": "> 100"}
{"smiles": "NC(=O)NC1NC(=O)NC1=O", "note": "(configuration not stated)", "TGI": "> 100"}
{"smiles": "CCN(CCCl)c1cc(CN(C)C)cc(NC(=O)c2ccc(C(=O)Nc3cc(CN(C)C)cc(N(CC)CCCl)c3)cc2)c1", "TGI": 11.6}
{"smiles": "C=CCN1C(=O)/C(=C/c2ccc(Cl)cc2)N=C1SC/C=C/C", "TGI": "> 100"}
{"smiles": "CC12Nc3c(Cl)cc(Cl)cc3N1C(=O)c1ccccc12", "note": "(configuration not stated)", "TGI": "> 100"}
{"smiles": "Nc1cc(Cl)cc2cc(Cl)cnc12", "TGI": "> 100"}
{"smiles": "COC(=O)/C(C)=N/NC(=S)SC", "TGI": "> 100"}
{"smiles": "O=C(/C=C/c1cccc([N+](=O)[O-])c1)N1CCN(CCOC(c2ccccc2)c2ccccc2)CC1", "TGI": "> 100"}
{"smiles": "CC(=O)OCC1OC(NC(=S)Nn2c(=O)[nH]c3ccccc3c2=O)C(OC(C)=O)C(OC(C)=O)C1OC(C)=O", "note": "(configuration not stated)", "TGI": "> 100"}
{"smiles": "Cc1ccc2c(c1)C(=O)C1(C2)Cc2c(C)cccc2C1=O", "note": "(configuration not stated)", "TGI": "> 100"}
{"smiles": "CC1=NN(c2cccc(S(=O)(=O)O)c2)C2(C1)C(Cl)C(=O)N2c1nc2ccccc2s1", "note": "(configuration not stated)", "TGI": 8.27}
{"smiles": "C/C(Cl)=N/OC(=O)Nc1ccc(F)c([N+](=O)[O-])c1", "TGI": 20.5}
{"smiles": "COC(=O)C1C2OC(C)(C)OC2CN1S(=O)(=O)c1ccc(C)cc1", "note": "(configuration not stated)", "TGI": "> 100"}
{"smiles": "COc1ccc(CNc2ccn(C3OC(CO)C(O)C3O)c(=O)n2)cc1", "note": "(configuration not stated)", "TGI": "> 100"}
{"smiles": "O=C1CSC(c2ccccc2)N1c1nc2cc3sc(N4C(=O)CSC4c4ccccc4)nc3cc2s1", "note": "(configuration not stated)", "TGI": "> 100"}
{"smiles": "C[C@]12CCC(O)CC1=CC[C@@H]1[C@@H]2CC[C@]2(C)C(O)[C@H](n3ccnc3)C[C@@H]12", "note": "(some centres not stated)", "TGI": "> 100"}
{"smiles": "O=C(CC(O)(C(F)(F)F)C(F)(F)F)C(c1ccccc1)C(O)(C(F)(F)F)C(F)(F)F", "note": "(configuration not stated)", "TGI": "> 100"}
{"smiles": "CCOC(=O)/C(C#N)=C/Nc1c(C)n(C)n(-c2ccccc2)c1=O", "TGI": "> 100"}
